Assay [1] has as its system MRC-5 human lung fibroblast cell line. The assay is described as follows: MTT cytotoxicity assay in MRC-5. The format is cell-based. The protocol:
(§1) The in vitro cytotoxic activity of the novel water-soluble amino acid derivatives of HQCl and their RhCp* and RuCym complexes was measured by the thiazolyl blue tetrazolium bromide (MTT) assay in two human colon adenocarcinoma cell lines (Colo-205 and Colo-320) and in one non-tumoral human lung fibroblast cell line (MRC-5). The results are given in terms of IC50 values (Table 1). Colo-205 is a drug-sensitive cell line with a normal ABCB1 transporter expression pattern, while Colo-320 is multidrug-resistant and overexpresses the ABCB1 system.
(§2) All cell culture reagents were obtained from Sigma-Aldrich and plasticware from Sarstedt (Nümbrecht, Germany). Human colonic Colo-205 doxorubicin-sensitive and Colo-320/MDR-LRP multidrug-resistant adenocarcinoma and MRC-5 human embryonal lung fibroblast cell lines were purchased from LGC Promochem, Teddington, UK. The colonic adenocarcinoma cells were cultured in Roswell Park Memorial Institute (RPMI) 1640 medium supplemented with 10% heat-inactivated fetal bovine serum, 2 mM L-glutamine, 1 mM sodium pyruvate and […]. The MRC-5 cell line was cultured in Eagle’s Minimal Essential Medium (EMEM, Sigma-Aldrich, St. Louis, MO, USA) supplemented with a non-essential amino acid (NEAA) mixture (Sigma-Aldrich, St. Louis, MO, USA) a selection of vitamins, 10% heat-inactivated foetal bovine serum (FBS), 2 mM L-glutamine (Sigma-Aldrich, St. Louis, MO, USA), 1 mM Na-pyruvate (Sigma-Aldrich, St. Louis, MO, USA), nystatin (Sigma-Aldrich, St. Louis, MO, USA) and a penicillin-streptomycin mixture (Sigma-Aldrich, St. Louis, MO, USA) in con-centrations of 100 U/L and 10 mg/L, respectively. The cells were incubated at 37 °C, in a 5% CO2, 95% air atmosphere. All cell lines were detached with Trypsin-Versene (EDTA) solution for 5 min at 37 °C.
(§3) The tested compounds were dissolved in 10% (v/v) DMSO/H2O using 4 mM concentration. Doxorubicin (Merck, Darmstadt, Germany) was used as a positive control. Then stock solutions were diluted in complete culture medium, and two-fold serial dilutions of compounds were prepared in 100 μL of the medium, horizontally. The semi-adherent colonic adenocarcinoma cells were treated with Trypsin-Versene (EDTA) solution. They were adjusted to a density of 1 × 10^4 cells in 100 μL of RPMI 1640 or EMEM medium and were added to each well, with the exception of the medium control wells. The final volume of the wells containing compounds and cells was 200 μL. The plates containing Colo-205, Colo-320 or MRC-5 cells were incubated at 37 °C for 72 h; at the end of the incubation period, 20 μL of MTT solution (from a stock solution of 5 mg/mL) were added to each well. After incubation at 37 °C for 4 h, 100 μL of SDS solution (10% in 0.01 M HCI) were added to each well, and the plates were further incubated at 37 °C overnight. […] The IC50 values were obtained from at least 3 independent experiments.
Background: Formazan colour is commonly taken as a measure of viable cells.

The test system of assay [2] is Colo-320 human colon adenocarcinoma cell line (multidrug-resistant). The assay is described as follows: MTT cytotoxicity assay in Colo-320. The settings on record: 72 h incubation. The format is cell-based. The protocol:
as §1, §2, §3

The target of assay [3] is T1, HSA site I (subdomain IIA) (Homo sapiens, UniProt P02768).
T1 construct: purchased Sigma-Aldrich A8763
The assay is described as follows: Trp-214 quenching, spectrofluorometry. The format is binding. The settings on record: cHSA = 1 µM, pH 7.4 (PBS’), λEX = 295 nm. The procedure:
Tryptophan (Trp-214) quenching and dansylglycine (DG) site marker displacement experiments were performed to calculate binding constants for site I and II, respectively, similar to our previous works.
Fluorescence measurements were carried out on a Fluoromax (Horiba Jobin Yvon, Longjumeau, France) spectrofluorometer using 1 cm × 1 cm quartz cuvette. Samples contained 1 µM HSA or 1 µM DG and 1 µM HSA, or 20 µM (nucleotide) ct-DNA and 5 µM EB, and the complex concentration was varied between 0 and 40 µM or 0 and 300 µM, respectively. Spectroscopic measurements were carried out on individually prepared samples. Excitation wavelengths were 295 nm for Trp-214 quenching, 340 nm for the DG displacement studies and 510 nm for the ct-DNA–EB system. The calculated conditional stability constants for HSA–complex species were obtained using the computer program HypSpec. Calculations always were based on data obtained from at least two independent measurements. Self-absorbance and inner filter effect had to be taken into account, and corrections were made as was described in our former works.

Assay [4] concerns Ac-Phe–His–Ala-NH2 (FHA). As to the kind of experiment: Binding to the His model tripeptide FHA by 1H NMR. The settings on record: pH 7.4 (PBS’), 0.5 or 1 mM. An excerpt:
The slow binding kinetics indicates coordination binding mode, and the monodentate coordination of a side chain donor of HSA takes place most likely by the replacement of the co-ligand water or chloride, while the original bidentate (N,O) ligand remains coordinated, as it was also reported to analogous high stability RuCym and RhCp* complexes.
Similar reaction rates with FHA were found for the HQCl-D-Pro and HQCl-D-hPro complexes, and the reaction with this simple oligopeptide is much faster compared to the HSA. Conditional stability constants determined for the complex-FHA ternary species by ^1H NMR spectroscopic measurements (exemplary spectra are presented in Figure S29) are shown in Table 4. […] In all, this oligopeptide model can serve as a good binding model for surface-exposed side chains, although it provides limited information about binding events at more deeply located binding pockets of HSA, where the role of secondary interactions might be more significant.
Bruker Avance III HD Ascend 500 Plus instrument (Billerica, MA, USA) was used for NMR studies. ^1H NMR spectroscopic measurements were carried out with a WATERGATE water suppression pulse scheme in the presence of 10% (v/v) D2O in most cases. DSS internal standard was added to samples to obtain reference peaks. Complex concentrations were 0.5 mM or 1.0 mM, and 0.5 equiv. HSA was added. ^1H NMR titrations were carried out in the presence of 0.2 M KNO3. With the FHA model peptide, the measurements were performed at 0.5 or 1 mM metal complex concentrations, and 1:1, 1:2 or 2:1 peptide-to-metal complex ratios were applied. The computer program HypSpec was used to obtain stability constants.

In assay [5] the test system is Colo-205 human colon adenocarcinoma cell line (doxorubicin-sensitive). As to the kind of experiment: MTT cytotoxicity assay in Colo-205. The format is cell-based. The settings on record: 72 h incubation. The protocol:
as §1, §2, §3

Consider five compounds from paper PMC8570331, “8-Hydroxyquinoline-Amino Acid Hybrids and Their Half-Sandwich Rh and Ru Complexes: Synthesis, Anticancer Activities, Solution Chemistry and Interaction with Biomolecules” (International Journal of Molecular Sciences, 2021).

Structures are written as SMILES.

T1 sequence (P02768 25-609): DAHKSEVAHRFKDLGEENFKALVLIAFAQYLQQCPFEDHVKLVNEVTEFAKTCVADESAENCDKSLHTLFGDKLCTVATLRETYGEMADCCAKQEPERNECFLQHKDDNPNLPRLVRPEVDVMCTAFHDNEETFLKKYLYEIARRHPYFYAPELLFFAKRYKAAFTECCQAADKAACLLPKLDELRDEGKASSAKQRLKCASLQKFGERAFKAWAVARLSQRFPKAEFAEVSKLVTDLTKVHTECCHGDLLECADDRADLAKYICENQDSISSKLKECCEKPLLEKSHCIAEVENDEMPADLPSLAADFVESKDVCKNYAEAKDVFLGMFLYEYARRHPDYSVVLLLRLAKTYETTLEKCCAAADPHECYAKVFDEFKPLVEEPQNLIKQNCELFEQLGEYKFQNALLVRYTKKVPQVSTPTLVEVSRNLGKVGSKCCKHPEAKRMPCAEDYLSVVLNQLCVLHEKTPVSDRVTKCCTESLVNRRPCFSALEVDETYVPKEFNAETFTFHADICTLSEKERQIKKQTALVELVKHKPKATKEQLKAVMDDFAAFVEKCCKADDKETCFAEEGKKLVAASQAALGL

For orientation: IC50 means the concentration that inhibits the measured activity by half. A high value points to weaker potency. Turning to `Cc1c(C)c(C)[c-](C)c1C.O=C(O)[C@H]1CCCC[NH+]1Cc1cc(Cl)c2cccnc2c1[O-].[Cl-].[Cl-].[Rh+3]` [RhCp*–HQCl-D-hPro, [RhCp*(HQCl-D-hPro)Cl]Cl], the results for the IC50 in assay [1] (72 h incubation), in assay [2] and in assay [5] were 37.6 ± 2.3 µM, 18.9 ± 0.54 µM and 21.5 ± 0.6 µM, respectively. In addition, the “Trp-214 Quenching logKQ′, Site I” value in assay [3] came to 5.6 ± 0.1. The “FHA logKFHA′” value in assay [4] is 4.5 ± 0.2.

On to `O=C(O)[C@H]1CCCCN1Cc1cc(Cl)c2cccnc2c1O` [HQCl-D-hPro, (R)-5-chloro-7-((homoproline-1-yl)methyl)8-hydroxyquinoline], for which the half-maximal inhibitory concentration (IC50) in assay [1] (Homo sapiens, MRC5, 72 h incubation) is 3.63 ± 0.1 µM.

Regarding `Cc1ccc(C(C)C)cc1.O=C(O)[C@H]1CCC[NH+]1Cc1cc(Cl)c2cccnc2c1[O-].[Cl-].[Cl-].[Ru+2]` [RuCym–HQCl-D-Pro, [RuCym(HQCl-D-Pro)Cl]Cl], the IC50 in assay [1] (72 h incubation), in assay [2] and in assay [5] was more than 100 µM throughout. The “Trp-214 Quenching logKQ′, Site I” value in assay [3] is on record as 5.5 ± 0.1. For the same compound, in assay [4], the “FHA logKFHA′” value is listed as 4.4 ± 0.3.

On to `Cc1ccc(C(C)C)cc1.O=C(O)[C@H]1CCCC[NH+]1Cc1cc(Cl)c2cccnc2c1[O-].[Cl-].[Cl-].[Ru+2]` [RuCym–HQCl-D-hPro, [RuCym(HQCl-D-hPro)Cl]Cl], for which the IC50 in assay [1] (72 h incubation), in assay [2] and in assay [5] was more than 100 µM in each case. In addition, the “Trp-214 Quenching logKQ′, Site I” value in assay [3] was 5.3 ± 0.1. Besides, the “FHA logKFHA′” value in assay [4] was 4.6 ± 0.2.

On to `Cc1c(C)c(C)[c-](C)c1C.O=C(O)[C@H]1CCC[NH+]1Cc1cc(Cl)c2cccnc2c1[O-].[Cl-].[Cl-].[Rh+3]` [RhCp*–HQCl-D-Pro, [RhCp*(HQCl-D-Pro)Cl]Cl], for which the results for the IC50 in assay [1] (72 h incubation), in assay [2] and in assay [5] were 82.1 ± 5.1 µM, 34.3 ± 1 µM and 31.5 ± 1.4 µM, respectively. For the same compound, the “Trp-214 Quenching logKQ′, Site I” value in assay [3] is on record as 5.6 ± 0.1. Besides, the “FHA logKFHA′” value in assay [4] is reported as 4.4 ± 0.2.
